13 compounds from PubChem BioAssay (NCI) can be followed below.

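Dose response: 5 concentrations. Exposure: 48 h. Format: 96-well plates. Endpoint: linear interpolation; highest concentration if not reached. TGI: concentration producing complete growth inhibition.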

Some test systems named below: HOP-62 NSCLC; KM12 colon; MALME-3M melanoma; SF-295 CNS; SK-MEL-2 melanoma; SK-MEL-28 melanoma; SNB-75 CNS; T-47D breast; UACC-257 melanoma; TK-10 renal.
Test in all cases: DTP human tumour cell line panel, 48 h

In the case of `CCOc1ccc(N/C(=C(/C(Cl)=C(/Cl)NC(C)(C)C)[N+](=O)[O-])n2nnc3ccccc32)cc1`, the TGI (commonly the concentration giving total growth inhibition) with HOP-62 NSCLC is more than 100 µM; in the assay with KM12 colon, 61.7 µM; with MALME-3M melanoma, 33.3 µM; with SF-295 CNS it was 78.8 µM; in the assay with SK-MEL-2 melanoma, more than 100 µM; in the assay on SK-MEL-28 melanoma, 38.8 µM. For the same compound, the TGI is 54 µM in the assay on SNB-75 CNS, 32 µM in the assay on T-47D breast and more than 100 µM in the assay on UACC-257 melanoma.

Consider `COc1ccc(-c2c(C#N)c(S)n(NS(=O)(=O)c3ccccc3)c(=O)c2C#N)cc1`, for which the concentration for total growth inhibition (TGI) in the assay on HOP-62 NSCLC, in the assay on KM12 colon, with MALME-3M melanoma, in the assay with SF-295 CNS, with SK-MEL-2 melanoma and with SK-MEL-28 melanoma was more than 100 µM each time. Further, the TGI in the assay on SNB-75 CNS, in the assay on T-47D breast, in the assay on TK-10 renal and in the assay on UACC-257 melanoma was more than 100 µM each time.

As for `CCN1CN(c2ccccc2)C2(CCN(CC(CC3OCCO3)c3ccc(F)cc3)CC2)C1=O` (stereo unspecified), the concentration for total growth inhibition (TGI) is 12.1 µM in the assay with HOP-62 NSCLC; 17.5 µM with KM12 colon; 43.1 µM with MALME-3M melanoma; 18.9 µM with SF-295 CNS; 46.8 µM with SK-MEL-2 melanoma; 40.5 µM with SK-MEL-28 melanoma. The TGI was 93 µM in the assay on SNB-75 CNS, 38.9 µM in the assay with T-47D breast, more than 46.7 µM in the assay with TK-10 renal and 13.8 µM in the assay on UACC-257 melanoma.

On to `N#Cc1c(O)c(/C=N/c2ncccn2)c(=O)n2c1[nH]c1ccccc12`, for which the total growth inhibition concentration (TGI) in the assay with KM12 colon, in the assay with MALME-3M melanoma, in the assay with SF-295 CNS, with SK-MEL-2 melanoma, in the assay on SK-MEL-28 melanoma and in the assay with SNB-75 CNS was more than 100 µM each time. For the same compound, the TGI in the assay with T-47D breast, in the assay on TK-10 renal and with UACC-257 melanoma was more than 100 µM each time.

As to `CCO/C=N/C1=C(C#N)SC2=N/C(=C\c3ccccc3)C(=O)N21`, the TGI in the assay with HOP-62 NSCLC, with KM12 colon, in the assay with MALME-3M melanoma, with SF-295 CNS, in the assay with SK-MEL-2 melanoma and with SK-MEL-28 melanoma was more than 100 µM in each case. Also, the TGI in the assay on SNB-75 CNS, in the assay on T-47D breast, in the assay with TK-10 renal and with UACC-257 melanoma was more than 100 µM each time.

With `CCOP(=O)(OCC)OC1c2[nH]cc(C(=O)OCc3ccccc3)c2-c2cc(C(=O)OC)[nH]c2C1OC` (stereo unspecified), the TGI is 36.3 µM in the assay on HOP-62 NSCLC; more than 92.6 µM in the assay with KM12 colon; 60 µM in the assay on MALME-3M melanoma; 28.8 µM in the assay with SF-295 CNS; more than 76.5 µM in the assay on SK-MEL-2 melanoma; more than 100 µM in the assay with SK-MEL-28 melanoma. For the same compound, the TGI in the assay with SNB-75 CNS is 56.2 µM; in the assay on T-47D breast, 24 µM; with TK-10 renal, more than 39.9 µM; in the assay with UACC-257 melanoma it was more than 35 µM.

As for `CN(C)Cc1cc(N=Nc2ccc(Cl)cc2)cc(CN(C)C)c1O`, the TGI in the assay on HOP-62 NSCLC turned out to be 14.6 µM; in the assay on KM12 colon it was 20.7 µM; in the assay with MALME-3M melanoma, 28.6 µM; in the assay on SF-295 CNS, 24.7 µM; with SK-MEL-2 melanoma it was 27.8 µM; with SK-MEL-28 melanoma it was 23.9 µM. Also, the TGI was found to be 25.8 µM with SNB-75 CNS, 33.6 µM with T-47D breast, 21.3 µM with TK-10 renal and 31.5 µM with UACC-257 melanoma.

For the compound `CC1(C)[C@@H]2C[C@H]1c1cnc(-c3ccccn3)cc1C2CCCCC[C@@H]1c2cc(-c3ccccn3)ncc2[C@@H]2C[C@H]1C2(C)C` (stereo partly specified), the TGI in the assay on HOP-62 NSCLC is more than 69.2 µM; in the assay on KM12 colon, more than 100 µM; in the assay with MALME-3M melanoma, more than 100 µM; in the assay on SF-295 CNS it was 7.33 µM; in the assay with SK-MEL-2 melanoma, more than 88.6 µM; in the assay on SK-MEL-28 melanoma it was more than 100 µM. Moreover, the TGI in the assay with SNB-75 CNS was more than 22.6 µM; with T-47D breast, more than 100 µM; in the assay on TK-10 renal, more than 100 µM.

Regarding `CC1=C(C(=O)N[C@@H](CC(C)C)C(=O)O)N2C(=O)[C@@H](NC(=O)C(N)c3ccccc3)[C@H]2SC1` (stereo partly specified), the TGI in the assay with KM12 colon, in the assay with MALME-3M melanoma, in the assay on SF-295 CNS, in the assay on SK-MEL-2 melanoma, with SK-MEL-28 melanoma and in the assay with SNB-75 CNS was more than 100 µM each time. Moreover, the TGI in the assay on T-47D breast, with TK-10 renal and in the assay with UACC-257 melanoma was more than 100 µM each time.

With `O=C1CC(=O)NC(=NNS(=O)(=O)c2ccc(Cl)cc2)N1`, the TGI in the assay with HOP-62 NSCLC, with KM12 colon, with MALME-3M melanoma, in the assay with SF-295 CNS, with SK-MEL-2 melanoma and in the assay with SK-MEL-28 melanoma was more than 100 µM each time. Besides, the TGI in the assay on SNB-75 CNS, in the assay on T-47D breast, with TK-10 renal and in the assay with UACC-257 melanoma was more than 100 µM throughout.

Consider `CCOC(=O)c1c(NC(=S)Nc2ccccc2)sc2c1CCOC2`, for which the concentration for total growth inhibition (TGI) with HOP-62 NSCLC, with KM12 colon, in the assay on MALME-3M melanoma, in the assay on SF-295 CNS, in the assay on SK-MEL-2 melanoma and with SK-MEL-28 melanoma was more than 100 µM throughout. The concentration for total growth inhibition (TGI) in the assay on SNB-75 CNS is 62.1 µM; in the assay with T-47D breast, more than 100 µM; with TK-10 renal, more than 100 µM; in the assay with UACC-257 melanoma it was more than 100 µM.

In the case of `CN(C)c1ccc(C=C2C(=O)NC(=S)NC2=O)c2ccccc12`, the concentration for total growth inhibition (TGI) with HOP-62 NSCLC, with KM12 colon, with MALME-3M melanoma, in the assay with SF-295 CNS, in the assay on SK-MEL-2 melanoma and with SK-MEL-28 melanoma was more than 100 µM each time. The TGI with SNB-75 CNS, with T-47D breast, in the assay with TK-10 renal and in the assay with UACC-257 melanoma was more than 100 µM in each case.

Regarding `COC(=O)/C=C1/OC(c2ccc(OC)cc2)=C(Cl)C1=O`, the concentration for total growth inhibition (TGI) in the assay with HOP-62 NSCLC is 39.2 µM; with KM12 colon it was 36.4 µM; with MALME-3M melanoma, 30.7 µM; with SF-295 CNS it was 43.4 µM; in the assay on SK-MEL-2 melanoma, 33.6 µM; in the assay with SK-MEL-28 melanoma, 32.6 µM. The TGI with SNB-75 CNS turned out to be 37.3 µM; with T-47D breast, 36.6 µM; in the assay on TK-10 renal, 40.1 µM; in the assay with UACC-257 melanoma, 49.6 µM.
